For the series, the system named is Nude (RNU) rats. Description: FK506 immunosuppression of nude rats transplanted with human hepatocytes, body size. It counts as in vivo, rat. To be noted: 2 mg/kg/day FK506, four weeks after hepatocyte injection. How it is done: Forty nude rat pups (2 weeks old) were obtained from Charles River and acclimated for a week before the study began. The rats were assigned to + or −immunosuppressive groups, with controls in each group (see Table 3 below). Rats assigned to the +immunosuppressive group were treated with 2 mg/kg/day subcutaneous doses of FK506 (Tacrolimus) throughout the study, with the initial dosage being 20 μl of 5 mg/mL FK506 ([…]) per day, based upon an average initial animal weight of 50 g at the start of the study. The −immunosuppression rats were not treated with FK506, but were injected subcutaneously with the same volume of saline throughout the study. All of the rats were then given an intravenous injection (retroorbital) of uPA adenovirus (2.5×10^9 plaque forming units (PFU) per 50 g rat) 48-96 hours before hepatocyte injection.
Two weeks after study commencement, the dose of FK506 was increased to 30 μl of 5 mg/mL due to an increase in animal weight. Four weeks after study commencement, the dose of FK506 was again increased to 25 μl of 10 mg/mL to account for growth of the rats.
Four weeks after hepatocyte injection (˜5 weeks after study commencement), at least 50 μl of whole blood was collected from the rats and allowed to clot for 1 hour at room temperature. Serum was collected by centrifuging the whole blood at 1,500 rpm×15 minutes. […]

Consider `C=CC[C@@H]1/C=C(\C)C[C@H](C)C[C@H](OC)[C@H]2O[C@@](O)(C(=O)C(=O)N3CCCC[C@H]3C(=O)O[C@H](/C(C)=C/[C@@H]3CC[C@@H](O)[C@H](OC)C3)[C@H](C)[C@@H](O)CC1=O)[C@H](C)C[C@@H]2OC` [FK506], for which the “body size on reweighing versus non-treated rats” value is reported as “significantly smaller than their non-treated counterparts”.

For the origin of these results see patent US10470445B2, “Fumarylacetoacetate hydrolase (Fah)-deficient and immunodeficient rats and uses thereof” (YECURIS CORPORATION, priority 2011, dated 2019).
